This passage reports IC50 results from ChEMBL document CHEMBL2380308, “Voulkensin C-E, new 11-oxocassane-type diterpenoids and a steroid glycoside from Caesalpinia volkensii stem bark and their antiplasmodial activities” (Bioorg Med Chem Lett, 2013).

By IC50 is commonly meant the midpoint of a concentration-inhibition curve.

The test system of assay [1] is Plasmodium falciparum. In words: Antiplasmodial activity against Plasmodium falciparum W2. The class given is functional, organism-based.
In assay [2] the test system is Plasmodium falciparum. In words: Antiplasmodial activity against Plasmodium falciparum D6. The class given is functional, organism-based.

For `CC[C@H](/C=C/[C@@H](C)[C@H]1CC[C@H]2[C@@H]3CC=C4C[C@@H](O[C@@H]5OC[C@@H](O)[C@H](O)[C@H]5O[C@@H]5O[C@H](CO)[C@@H](O)[C@H](O)[C@H]5O)CC[C@]4(C)[C@H]3CC[C@]12C)C(C)C`, the IC50 is 2.74 µM in assay [1] and 4.44 µM in assay [2].

In the case of `C[C@H]1C(CCO)=CC(=O)[C@H]2[C@H]1CC[C@H]1C(C)(C)CCC[C@]21C`, the IC50 was determined as 15.6 µM in assay [1] and 18.7 µM in assay [2].

On to `C=C1C(CCO)=CC(=O)[C@H]2[C@H]1CC[C@H]1C(C)(C)CCC[C@]21C`, for which the IC50 in assay [1] is 22.8 µM; in assay [2], 17.3 µM.

For the molecule `CC(=O)O[C@@]1(C)CCC[C@]2(C)[C@H]3Cc4occc4[C@H](C)[C@@H]3CC[C@@]12O`, the IC50 turned out to be 30.7 µM in assay [1] and 34.4 µM in assay [2].

Turning to `CC1(C)CC[C@]2(C(=O)O)CC[C@]3(C)C(=CC[C@@H]4[C@@]5(C)CC[C@H](O)C(C)(C)[C@@H]5CC[C@]43C)[C@@H]2C1` [OLEANOLIC_ACID], the IC50 in assay [1] amounted to 26.2 µM; in assay [2] it was 23.8 µM.

For the molecule `C[C@H]1c2ccoc2C[C@H]2[C@H]1CC[C@@]1(O)C(C)(C)CCC[C@]21C` [VOUCAPAN-5 ALPHA-OL], the IC50 in assay [1] and in assay [2] was more than 50 µM each time.

As to `C=C1C(CCOC(=O)/C=C/c2ccc(O)c(O)c2)=CC(=O)[C@H]2[C@H]1CC[C@H]1C(C)(C)CCC[C@]21C`, the IC50 in assay [1] worked out at 16.5 µM; in assay [2], 11.6 µM.

Consider `CC(=O)O[C@@]1(C)CCC[C@@]2(C)[C@H]1CC[C@H]1[C@@H](C)c3ccoc3C[C@@H]12`, for which the IC50 in assay [1] worked out at 30.3 µM; in assay [2], 25.7 µM.

Take `CC[C@H](/C=C/[C@@H](C)[C@H]1CC[C@H]2[C@@H]3CC=C4C[C@@H](O)CC[C@]4(C)[C@H]3CC[C@]12C)C(C)C` [STIGMASTEROL]: the half-inhibitory concentration (IC50) in assay [1] and in assay [2] was more than 50 µM throughout.

With `COC(=O)[C@]12CCC(C)(C)C[C@H]1C1=CC[C@@H]3[C@@]4(C)CC[C@H](OC(C)=O)C(C)(C)[C@@H]4CC[C@@]3(C)[C@]1(C)CC2`, the IC50 worked out at 24.4 µM in assay [1] and 18.7 µM in assay [2].

Turning to `CC[C@H](CC[C@@H](C)[C@H]1CC[C@H]2[C@@H]3CC=C4C[C@@H](O)CC[C@]4(C)[C@H]3CC[C@]12C)C(C)C` [BETA-SITOSTEROL], the IC50 in assay [1] and in assay [2] was more than 50 µM in each case.
